How the values were obtained:
sebocytes = conditions: known effect of reference compound; cited from earlier work
SSG3 cells [1] = assay: Real-time PCR of lipogenic gene expression in primary SSG3 sebocytes; format: cell-based, human
Description: To ablate TGFβRII in SSG3 cells, shRNA vectors from the CCHMC Heart Institute lenti-shRNA library core (shRNA TGFβRII #197031 and 194992 and a shRNA control) were used. The human library was purchased from Sigma-Aldrich (MISSION shRNA; St. Louis, Mo.). Viral vector was produced by the Viral Vector Core at the Translational Core Laboratories, Cincinnati Children's Hospital Research Foundation. Cells were grown to 80% confluency in 6-well plates before being infected with the lentivirus for 48 h. Infected cells were selected with 1 µg/ml puromycin (Sigma) for 48 h. Following selection, TGFβRII knock down cells were grown in regular media for 48 h before being activated with 5 ng/ml TGFβ1 for 24 h.
(§1) Total RNA was isolated using a Rneasy Mini Kit (Qiagen, Germantown, Md.) and used to produce cDNA (Maxima first strand cDNA synthesis kit, Fermentas, Waltham, Mass.). Reverse transcription (RT) reactions were diluted to 10 ng/pl and 1 pl of each RT was used for real-time PCR. Real-time PCR was performed using the CFX96 real-time PCR System, CFX Manager Software and the SsoFast EvaGreen Supermix reagents (Biorad, Hercules, Calif.). All reactions were run in triplicate and analyzed using the […] with relative expression normalized to GAPDH.
(§2) For Nile red staining, cells or OCT sections were fixed 10 minutes at room temperature in 4% formaldehyde. After 3 wash in 1×PBS, staining with 0.1 pg/ml of Nile red (Sigma) was performed in 0.15M NaCl for 15 minutes at room temperature. For Oil red 0 staining, cells were fixed 15 minutes in 10% formalin, wash with water for 10 minutes and 60% isopropanol before being stained with Oil red 0 (0.7% in 60% isopropanol) for 45 minutes. Cells were rinsed with 60% isopropanol and the nuclei stained with haematoxylin. To trigger differentiation of sebocytes in vitro, linoleic acid (Sigma, 0.1 mM) was added directly to sebocyte media. To prepare cells for extraction of lipids, 20-30 millions of cells were pelleted, washed with 1×PBS and lipid were preserved in the dark at −80° C. under argon until analysis. The qualitative and quantitative composition of lipids in scalp-derived human sebocytes was determined using an Agilent 5973N Gas chromatograph/Mass spectrometer with a SPE cartridge (solid phase extraction) and was performed by Synelvia S.A.S (Labege, France).

[2] = tested on: sebocytes-derived from breast and face; assay: Real-time PCR of lipogenic genes in breast- and face-derived sebocytes; format: cell-based, human; conditions: 5 ng/ml TGFβ1, 24 h
Description: as §1
RNA was isolated from sebocytes-derived from breast and face untreated or treated with 5 ng/ml of TGFβ1 for 24 h and used for real-time PCR. Two experiments were performed and all qPCR reactions were performed in triplicate. Data were normalized to GAPDH expression for each cell population and changes in relative expression were determined using untreated cells as a reference point.

SSG3 cells [3] = assay: Lipogenesis assays (Nile red, Oil red O, electron microscopy, Nile red FACS) in SSG3 cells; format: cell-based, human
Description: as §2
Cells were cultured in 6-well plates at 80% confluence and infected with the lentivirus expressing the shRNAs as previously described. After puromycin selection for 48 h, cells were washed in 1×PBS and treated with working medium with or without Linoleic acid (0.1 mM) for 24 h. The cells were trypsinized, washed once with 1×PBS and neutral lipids were labeled with the fluorescent dye Nile red (1 pg/ml in PBS). 10,000 cells per sample were analyzed using a FACS Canto I (BD Biosciences) equipped with a blue laser (488 nm excitation).
Cells were grown at 80% confluency in sebocyte media and rinsed once with 0.175M sodium cacodylate buffer. Cells were fixed in 3% glutaraldehyde/0.175M cacodylate buffer for 1 hour at 4° C. Dishes were washed twice with 0.175M sodium cacodylate buffer. Cells were post fixed in 1% osmium tetroxide/cacodylate buffer for 1 hour at 4° C. before being washed three times with 0.175M sodium cacodylate buffer. After the final wash with 1.5 ml, cells were scraped and centrifuged for 5 min at 10K. The cell pellet was then resuspended in 1 ml 1% agarose (Type IX ultra-low gelling tempt, Sigma) overnight at 4° C. The samples were then processed through a graded series of alcohols, infiltrated and embedded in LX-112 resin (Ladd Research, Williston, Vt. After polymerization at 60° C. for three days, ultrathin sections (100 nm) were cut using a Reichert-Jung Ultracut E microtome and counterstained in 2% aqueous uranyl acetate and Reynolds lead citrate. Images were taken with a transmission electron microscope (Hitachi H-6750) equipped with a digital camera (AMT 2k×2K tem CCD).

SSG3 sebocytes = assay: Immunoblot of Smad2 phosphorylation in SSG3 sebocytes; format: cell-based, human; conditions: 5 ng/ml TGFβ1, one hour
SEB-1 [4] = assay: Immunoblot of Smad2 phosphorylation in SEB-1; format: cell-based, human; conditions: 5 ng/ml TGFβ1, one hour
NIKS = assay: Immunoblot of Smad2 phosphorylation in NIKS keratinocytes; format: cell-based, human; conditions: 5 ng/ml TGFβ1, one hour
SEB-1 [5] = assay: Real-time PCR of PPARγ expression in immortalized sebocyte line SEB-1; format: cell-based, human; conditions: SEB-1, 0.1 mM linoleic acid, 48 h, vs untreated
Description: as §1
as §2, with “To trigger differentiation of sebocytes in vitro, linoleic acid (Sigma, 0.1 mM) was added directly to sebocyte media. To prepare cells for extraction of lipids, 20-30 millions of cells were pelleted, washed with 1×PBS and lipid were preserved in the dark at −80° C. under argon until analysis.” left out

[6] = SSG3, 5 ng/ml TGFβ1, 24 h, vs untreated
[7] = TGFβRII-deficient SSG3 cells, TGFβ1

CN(CCOc1ccc(CC2SC(=O)NC2=O)cc1)c1ccccn1 (stereo not shown) [Rosglitazone]
effect on lipogenesis (sebocytes): decrease lipogenesis

CC(=O)O[C@]1(C(C)=O)CC[C@H]2[C@@H]3C=C(Cl)C4=CC(=O)[C@@H]5C[C@@H]5[C@]4(C)[C@H]3CC[C@@]21C [Cyproteron acetate]
effect on lipogenesis (sebocytes): decrease lipogenesis

TGFβ1: exogenously recombinant TGFβ1, Transforming Growth Factor β ligand
mRNA expression of FADS2 (SSG3 cells [1]; [6]): significantly decreased | mRNA expression of PPARγ (SSG3 cells [1]; [6]): significantly decreased | decrease in FADS2 gene expression after TGFβ1 (SSG3 cells [1]; [7]): not detected | decrease in PPARγ gene expression after TGFβ1 (SSG3 cells [1]; [7]): not detected | TGFβRII expression (SSG3 cells [1]; control SSG3 cells treated with TGFβ for 24 h): decrease of TGFβRII | FADS2 expression [2]: decreased significantly | PPARγ expression [2]: decreased significantly | lipid production (SSG3 cells [3]; SSG3 expressing TGFβRII shRNA, TGFβ1 5 ng/ml, 24 h): no effect on the lipid production | lipid inclusion (SSG3 cells [3]; SSG3 with non-targeting shRNA control, TGFβ1 5 ng/ml, 24 h): decrease in lipid inclusion | Smad2 activation (phosphorylated Smad2) (SSG3 sebocytes): activate Smad2 | Smad2 activation (phosphorylated Smad2) (SEB-1 [4]): activate Smad2 | Smad2 activation (phosphorylated Smad2) (NIKS): activate Smad2

C[C@]12CC[C@H](O)CC1=CC[C@@H]1[C@@H]2CC[C@]2(C)C(=O)CC[C@@H]12 [DHEA, 5-Dehydroepiandrosterone]
effect on lipogenesis (sebocytes): increase lipogenesis

CCCCC/C=C\C/C=C\CCCCCCCC(=O)O [linoleic acid]
FADS2 expression (SSG3 cells [1]; SSG3 cells, 0.1 mM linoleic acid, 24 h and 48 h, vs untreated): significant increase of FADS2 expression | PPARγ expression (SSG3 cells [1]; SSG3 cells, 0.1 mM linoleic acid, 48 h, vs untreated): increase in PPARγ | PPARγ expression (SEB-1 [5]): do not show any significant changes | Nile red flow cytometry: fluorescence (neutral lipids) and granularity (SSG3 cells [3]; SSG3, 0.1 mM linoleic acid, 24 h): increase of fluorescence and granularity | lipid droplets by electron microscopy (SSG3 cells [3]; SSG3, after linoleic acid treatment vs untreated): increase of lipid droplets with higher electron density | cellular lipid distribution by Nile red stain (SSG3 cells [3]; SSG3, two days of linoleic acid treatment (0.1 mM)): producing lipids

CC1=C(/C=C/C(C)=C/C=C/C(C)=C\C(=O)O)C(C)(C)CCC1 [Isotretinoin, 13-cis retinoic acid]
effect on cell cycle (sebocytes): cell cycle arrest | effect on proliferation (sebocytes): anti-proliferative effect on sebocytes

C[C@]12CCC(=O)C[C@@H]1CC[C@@H]1[C@@H]2CC[C@]2(C)[C@@H](O)CC[C@@H]12 [5α-DHT, di-hydrotestosterone]
effect on lipogenesis (sebocytes): increase lipogenesis | effect on proliferation (sebocytes): increase proliferation
